According to BindingDB's records for doi:10.7270/Q2F769WQ (University of Pittsburgh, 2007):

Target: T1, Dual specificity protein phosphatase 1 (Homo sapiens, UniProt P28562)
T1 sequence (P28562 whole entry): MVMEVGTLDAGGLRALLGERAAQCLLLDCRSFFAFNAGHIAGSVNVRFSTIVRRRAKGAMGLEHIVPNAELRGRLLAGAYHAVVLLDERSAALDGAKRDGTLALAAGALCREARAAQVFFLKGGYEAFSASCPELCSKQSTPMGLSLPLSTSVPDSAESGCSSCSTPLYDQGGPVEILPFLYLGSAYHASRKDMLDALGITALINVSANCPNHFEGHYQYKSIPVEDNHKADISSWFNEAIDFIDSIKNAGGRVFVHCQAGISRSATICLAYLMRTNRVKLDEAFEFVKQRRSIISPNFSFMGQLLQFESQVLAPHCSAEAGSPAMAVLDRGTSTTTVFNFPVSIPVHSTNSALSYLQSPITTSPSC
Experiment: MKP-1 phosphatase inhibitor potency, dose response, biochemical, in vitro, confirmation (AID 551)
Conditions: pH 7; 22 °C

IC50	SMILES
49.9 µM	[O-]/[N+](=C\c1ccncc1)c1ccccc1
> 50 µM	Nc1nc2c(s1)CCc1c-2cnn1-c1ccccc1 [MLS000085948]
20.1 µM	O=C1Nc2ccccc2SC(c2ccccc2)C1O (centres undefined) [3-hydroxy-2-phenyl-2,3-dihydro-1,5-benzothiazepin-4(5H)-one]
> 50 µM	Cc1ccc(S(=O)(=O)NCC(C)NS(=O)(=O)c2ccc(C)cc2)cc1 (centres undefined) [4-methyl-N-[2-(tosylamino)propyl]benzenesulfonamide]
> 50 µM	CCOC(=O)c1ccc(Nc2c3[nH]cccc-3c(=O)n2Cc2ccc(F)cc2)cc1 [ethyl 4-[[6-[(4-fluorophenyl)methyl]-5-oxo-7H-pyrrolo[3,4-b]pyridin-7-yl]amino]benzoate]
> 50 µM	Cc1nn(C(C)C(=O)N2CCCCC2)c(=O)c2c1sc1ccccc12 (centres undefined) [2-(2-keto-1-methyl-2-piperidino-ethyl)-4-methyl-benzothiopheno[2,3-d]pyridazin-1-one]
> 50 µM	CC(=O)[C@@H]1[C@@H]2C(=O)N(c3ccc(F)c(Cl)c3)C(=O)[C@@H]2C2c3ccccc3C=CN21 (some centres undefined) [MLS000040594]
> 50 µM	Cn1c(=O)c2cc(S(=O)(=O)NCCC(=O)NCCC3=CCCCC3)ccc2n(C)c1=O [MLS000092640]
18.2 µM	CCn1c(SCC(=O)Nc2nc3ccc(OC)cc3s2)nc2c1c(=O)n(C)c(=O)n2C [2-(7-Ethyl-1,3-dimethyl-2,6-dioxo-2,3,6,7-tetrahydro-1H-purin-8-ylsulfanyl)-N-(6-methoxy-benzothiazol-2-yl)-acetamide]
> 50 µM	Cc1nn(Cc2ccccc2)c(C)c1NC(=O)CSc1nc2sc3c(c2c(=O)n1C)CCC3 [MLS000096728]
16.1 µM	COc1ccc2noc3c2c1C(=O)c1ccccc1-3 [MLS000106874]
> 50 µM	COc1ccc(OC)c(NC(=O)CSc2nnc(Cc3cccn3C)n2CCc2ccccc2)c1 [MLS000092931]
> 50 µM	N#CC(C(=O)CSc1nnc(Cc2cccs2)n1C1CCCCC1)c1nc2ccccc2[nH]1 (centres undefined) [MLS000098387]
> 50 µM	CCn1c(=O)cc(SCC(=O)N2CCN(Cc3ccc4c(c3)OCO4)CC2)c2ccccc21 [1-ethyl-4-[[2-keto-2-(4-piperonylpiperazino)ethyl]thio]carbostyril]
> 50 µM	CCOC(=O)CC(=O)CSc1nnc2sc3ccccc3n12 [3-keto-4-([1,2,4]triazolo[3,4-b][1,3]benzothiazol-1-ylthio)butyric acid ethyl ester]
0.136 µM	N#Cc1c(N2CCCC2)nc(N)c2c(N)nc(N3CCCC3)cc12 [SMR000061605]
> 50 µM	COc1ccc(-c2cn3c(C)c(C(=O)Nc4cccc(C)n4)sc3n2)cc1 [6-(4-methoxyphenyl)-3-methyl-N-(6-methyl-2-pyridinyl)-2-imidazo[2,1-b]thiazolecarboxamide]
> 50 µM	Cc1cccc(N2CCN(S(=O)(=O)c3ccc4c(c3)CCN4C(=O)CCC(=O)O)CC2)c1C [4-(5-{[4-(2,3-dimethylphenyl)piperazin-1-yl]sulfonyl}-2,3-dihydro-1H-indol-1-yl)-4-oxobutanoic acid]
> 50 µM	O=C(NC1CC1)c1c[nH]c2ccc(S(=O)(=O)Nc3cccc(C(F)(F)F)c3)cc2c1=O [MLS000046685]
> 50 µM	O=C(c1ccc2c(=O)n(C3CCCC3)c(=S)[nH]c2c1)N1CCN(C2CCCCC2)CC1 [7-[(4-cyclohexyl-1-piperazinyl)-oxomethyl]-3-cyclopentyl-2-sulfanylidene-1H-quinazolin-4-one]
> 50 µM	[O-]/[N+](=C\c1ccc(OC(F)F)cc1)c1ccccc1 [1-[4-(difluoromethoxy)phenyl]-N-phenylmethanimine oxide]

IC50	SMILES
> 50 µM	CCOc1ccc2nc(Nc3nc4c(c(=O)[nH]3)CCC4)nc(C)c2c1 [2-[(6-ethoxy-4-methylquinazolin-2-yl)amino]-1,5,6,7-tetrahydrocyclopenta[d]pyrimidin-4-one]
25.8 µM	Cc1cccc(N2CCN(C(=O)Cc3c(C(=O)O)[nH]c4ccc(Cl)cc34)CC2)c1C [5-chloranyl-3-[2-[4-(2,3-dimethylphenyl)piperazin-1-yl]-2-oxidanylidene-ethyl]-1H-indole-2-carboxylic acid]
11.4 µM	CCn1c(SCC(=O)Nc2ccc3c(c2)c2ccccc2n3CC)nnc1-c1ccco1 [MLS000050867]
> 50 µM	O=C1C(=C2C(=O)c3ccccc3C2=O)Nc2ccccc21 [MLS000071738]
> 50 µM	O=C1C=C(NCc2ccc(Cl)c(Cl)c2)CC1 [3-[(3,4-dichlorobenzyl)amino]cyclopent-2-en-1-one]
23.5 µM	CCCCn1c(NC(=O)c2ccccc2)c(C#N)c2nc3ccccc3nc21 [SMR000060333]
> 50 µM	COC(=O)CCCc1nc2ccccc2s1 [4-(1,3-benzothiazol-2-yl)butanoic acid methyl ester]
6.53 µM	CCCCCC#CCC#CCC#CCC#CCCCC(=O)O
23.1 µM	CC(C)Cn1c(N)c(C(=O)COC(=O)c2cc(-c3ccco3)nc3ccccc23)c(=O)n(C)c1=O [2-(2-furanyl)-4-quinolinecarboxylic acid [2-[4-amino-1-methyl-3-(2-methylpropyl)-2,6-dioxo-5-pyrimidinyl]-2-oxoethyl] ester]
48.6 µM	CCn1cc(C(=O)NC2CCC(C)CC2)c(=O)c2cc(S(=O)(=O)N3CCCCC3)ccc21 (centres undefined)
> 50 µM	Cc1ccc(C)c(-n2nnnc2SCC(=O)c2ccc3c(c2)NC(=O)CO3)c1 [6-[2-[1-(2,5-dimethylphenyl)tetrazol-5-yl]sulfanylacetyl]-4H-1,4-benzoxazin-3-one]
26.9 µM	COc1ccc(-c2cc3nc(C4CCN(C(=O)OC(C)(C)C)CC4)c(C(=O)O)cn3n2)cc1 [2-(4-methoxyphenyl)-5-[1-[(2-methylpropan-2-yl)oxy-oxomethyl]-4-piperidinyl]-6-pyrazolo[1,5-a]pyrimidinecarboxylic acid]
4.49 µM	COc1ccc(Br)cc1C=c1sc2nc(-c3ccco3)nn2c1=O [5-[(5-bromanyl-2-methoxy-phenyl)methylidene]-2-(furan-2-yl)-[1,3]thiazolo[3,2-b][1,2,4]triazol-6-one]
> 50 µM	O=c1c2cc(N3CCOCC3)ccc2[nH]c(=S)n1Cc1ccco1 [3-(2-furanylmethyl)-6-(4-morpholinyl)-2-sulfanylidene-1H-quinazolin-4-one]
15.8 µM	CCOC(=O)c1ccc2c(c1)C1C=CCC1C(C(=O)O)N2 (centres undefined) [MLS-0025126.0001]
> 50 µM	COc1ccc(-n2c(SCC(=O)N3CCCC3)nc3c([nH]c4ccccc43)c2=O)cc1 [SMR000018494]
14.2 µM	O=C(NC1(O)C(=O)c2ccccc2C1=O)c1ccccc1 [N-(2-hydroxy-1,3-dioxo-2-indenyl)benzamide]
31.1 µM	Cc1nc2c(C(=O)NCCC3=CCCCC3)c[nH]n2c(=O)c1Cl [6-chloro-N-(2-cyclohex-1-en-1-ylethyl)-7-hydroxy-5-methylpyrazolo[1,5-a]pyrimidine-3-carboxamide]
> 50 µM	COc1ccc(-n2nnnc2SCC(=O)Nc2ccc3c(c2)OCCO3)c(OC)c1 [MLS000071837]
35.9 µM	COC(=O)c1ccccc1NC(=O)CN1C(=O)C2CCCN2c2ncc(Cl)cc21 (centres undefined) [MLS000094302]

SMILES	IC50
CCCCOc1ccccc1P(=O)(O)CP(=O)(c1ccccc1)c1ccccc1 [(2-butoxyphenyl)-(diphenylphosphorylmethyl)phosphinic acid]	> 50 µM
Oc1ncnc2[nH]ncc12	> 50 µM
Cn1ncnc2c(=O)n(C)c(=O)nc1-2	0.184 µM
